One may read the MIC as the least concentration at which growth counts as inhibited. Broadly, the GI50 is the concentration giving 50% growth inhibition. High values mean lower sensitivity of the cells, low ones greater sensitivity of the cells.

SMILES strings stand for the structures. Converted amounts (≈) assume the structure as drawn. “And” between values parts separate entries of the source, which are not always exact repeats. Identical values can stand only once. Where only a bound is given, the exact number is not on record here.

Data set [1] concerns MRSA ATCC BAA-44. The experiment in a line: Minimal inhibitory concentration (MIC), standard broth microdilution. The format is cell-based, Staphylococcus aureus. To be noted: for MIC: Staphylococcus aureus, MRSA BAA-44 strain, read-out: MIC; for MIC (in words): MRSA BAA-44; for concentration that inhibited the growth of MRSA BAA-44 on average (antibiotic controls): antibiotic alone. The procedure:
(§1) RMA activity of the analogues was tested by assessing their abilities to sensitize MRSA to the antibiotic cefazolin (a first-generation cephalosporin). The well characterized strain MRSA ATCC BAA-44 was tested as previously described. […] The minimal inhibitory concentration (MIC), or the lowest concentration at which S. aureus is considered susceptible to an antibacterial, was determined by the standard broth microdilution method detailed in the CLSI handbook. RMA activity was compared by the ratio of MIC/MRC. The half growth inhibitory concentration (GI50) of each analogue against HeLa cells was determined as previously described. […] The luminescence of each sample was recorded in an Envision Multilabel Plate Reader (Perkin Elmer). Results of MICs and MRCs were confirmed by testing in triplicate. The GI50 assay was performed in duplicate.
(Broth dilution looks for growth in wells or tubes with falling amounts of substance.)

The subject of the next data set is HeLa cells. Put plainly: GI50 against HeLa cells, Cell Titer Glo viability assay. Format: cell-based, human. Particulars: 24 h. The procedure: as §1
Data set [2] has as its system MRSA ATCC BAA-44. The experiment in a line: Minimum re-sensitizing concentration (MRC) in the presence of cefazolin. Format: cell-based, Staphylococcus aureus. Particulars: MRSA BAA-44, cefazolin. The procedure:
as §1

`NCCOc1cc(Cl)c2nc(N3CCc4c([nH]c5ccc(Cl)cc45)C3)sc2c1` [Compound 4ab, 2-((4-Chloro-2-(6-chloro-1,3,4,9-tetrahydro-2H-pyrido[3,4-b]indol-2-yl)benzo[d]thiazol-6-yl)oxy)ethan-1-amine]: in the data set on MRSA ATCC BAA-44 [1], the MIC turned out to be 8 µg/mL (≈ 18.5 µM).

In the case of `OCC1CN(c2nc3ccc(Cl)cc3s2)Cc2[nH]c3ccc(Cl)cc3c21` (racemic) [Compound 10, (6-Chloro-2-(6-chlorobenzo[d]thiazol-2-yl)-2,3,4,9-tetrahydro-1H-pyrido[3,4-b]indol-4-yl)methanol], in the data set with HeLa cells, the GI50 stood at 10.8 µg/mL (≈ 26.7 µM).

In the case of `Clc1ccc2[nH]c3c(c2c1)CCN(c1nc2c(Cl)c(Cl)c(Cl)cc2s1)C3` [Compound 4y, 6-Chloro-2-(4,5,6-trichloro-1,3-benzothiazol-2-yl)-2,3,4,9-tetrahydro-1H-pyrido[3,4-b]indole], in the data set with MRSA ATCC BAA-44 [1], the “MIC (in words)” value was “excellent MICs” and the MIC turned out to be 2 µg/mL (≈ 4.51 µM). Besides, the GI50 in the data set with HeLa cells was 11.7 µg/mL (≈ 26.4 µM).

Regarding `CCOC(=O)C1c2[nH]c3ccc(Cl)cc3c2CCN1c1nc2ccc(Cl)cc2s1` (centres unmarked) [Compound 4l, Ethyl 6-chloro-2-(6-chloro-1,3-benzothiazol-2-yl)-2,3,4,9-tetrahydro-1H-pyrido[3,4-b]indole-1-carboxylate], the “RMA activity (in words)” value in the data set on MRSA ATCC BAA-44 [2] was “abolished”.

Regarding `Cl.NCCNc1cc(C(F)(F)F)c2nc(N3CCc4c([nH]c5ccc(Cl)cc45)C3)sc2c1` [Compound 4aj, N1-(2-(6-chloro-1,3,4,9-tetrahydro-2H-pyrido[3,4-b]indol-2-yl)-4-(trifluoromethyl)benzo[d]thiazol-6-yl)ethane-1,2-diamine hydrochloride], the “MIC (in words)” value in the data set on MRSA ATCC BAA-44 [1] is listed as “excellent MICs”. The same molecule showed a GI50 with HeLa cells of 7.4 µg/mL.

As for `N=CNCC1CN(c2nc3ccc(Cl)cc3s2)Cc2[nH]c3ccc(Cl)cc3c21` (racemic) [Compound 12f, N-((6-chloro-2-(6-chlorobenzo[d]thiazol-2-yl)-2,3,4,9-tetrahydro-1H-pyrido[3,4-b]indol-4-yl)methyl)formimidamide], in the data set with MRSA ATCC BAA-44 [1], the MIC was determined as 4 µg/mL (≈ 9.29 µM). This molecule also had a GI50 with HeLa cells of 3.8 µg/mL (≈ 8.83 µM).

Turning to `NCC1CN(c2nc3ccc(Cl)cc3s2)Cc2[nH]c3ccc(Cl)cc3c21` (racemic) [Compound 12b, (6-Chloro-2-(6-chlorobenzo[d]thiazol-2-yl)-2,3,4,9-tetrahydro-1H-pyrido[3,4-b]indol-4-yl)methanamine], in the data set on HeLa cells, the GI50 is 1.5 µg/mL (≈ 3.72 µM).

Regarding `COCOCC1CN(c2nc3ccc(Cl)cc3s2)Cc2[nH]c3ccc(Cl)cc3c21` (racemic) [Compound 11, 6-Chloro-2-(6-chloro-4-((methoxymethoxy)methyl)-1,3,4,9-tetrahydro-2H-pyrido[3,4-b]indol-2-yl)benzo[d]thiazole], the GI50 with HeLa cells worked out at 7.0 µg/mL (≈ 15.6 µM).

As for `CN(C)CC1CN(c2nc3ccc(Cl)cc3s2)Cc2[nH]c3ccc(Cl)cc3c21` (racemic) [Compound 12c, 1-(6-Chloro-2-(6-chlorobenzo[d]thiazol-2-yl)-2,3,4,9-tetrahydro-1H-pyrido[3,4-b]indol-4-yl)-N,N-Dimethylmethanamine], the MIC with MRSA ATCC BAA-44 [1] was 2 µg/mL (≈ 4.64 µM). In the data set with HeLa cells, this molecule returned a concentration for 50% growth inhibition (GI50) of 5.2 µg/mL (≈ 12.1 µM).

With `Cl.Nc1cc(C(F)(F)F)c2nc(N3CCc4c([nH]c5ccc(Cl)cc45)C3)sc2c1` [Compound 4ah, 2-(6-Chloro-1,3,4,9-tetrahydro-2H-pyrido[3,4-b]indol-2-yl)-4-(trifluoromethyl)-1,3-benzothiazol-6-aminium chloride], the MIC with MRSA ATCC BAA-44 [1] was determined as 16 µg/mL. The GI50 in the data set with HeLa cells worked out at 32 µg/mL.

Consider `Clc1ccc2[nH]c3c(c2c1)CCN(c1nc2ccccc2s1)C3` [Compound 4b, 2-(1,3-Benzothiazol-2-yl)-6-chloro-2,3,4,9-tetrahydro-1H-pyrido[3,4-b]indole], for which, in the data set on MRSA ATCC BAA-44 [2], the “RMA activity (in words)” value is “no RMA activity”.

`CN(C)C(=O)C1CN(c2nc3ccc(Cl)cc3s2)Cc2[nH]c3ccc(Cl)cc3c21` (racemic) [Compound 9, 6-Chloro-2-(6-chlorobenzo[d]thiazol-2-yl)-N,N-dimethyl-2,3,4,9-tetrahydro-1H-pyrido[3,4-b]indole-4-carboxamide]: the “RMA activity (in words)” value in the data set on MRSA ATCC BAA-44 [2] is given as “significantly decreased or abolished the RMA activity”.

Take `FC(F)(F)c1cc(Br)cc2sc(N3CCc4c([nH]c5ccc(Cl)cc45)C3)nc12` [Compound 4ag, 2-[6-Bromo-4-(trifluoromethyl)-1,3-benzothiazol-2-yl]-6-chloro-2,3,4,9-tetrahydro-1H-pyrido[3,4-b]indole]: the MIC in the data set with MRSA ATCC BAA-44 [1] came out at 4 µg/mL (≈ 8.22 µM). In addition, in the data set on HeLa cells, the GI50 was 5.9 µg/mL (≈ 12.1 µM).

Take `Clc1ccc2[nH]c3c(c2c1)CCN(c1nc2ncccc2s1)C3` [Compound 4d, 6-Chloro-2-([1,3]thiazolo[4,5-b]pyridin-2-yl)-2,3,4,9-tetrahydro-1H-pyrido[3,4-b]indole]: in the data set on MRSA ATCC BAA-44 [2], the “RMA activity (in words)” value is “abolished”.

`Cc1nnc(SCC2=C(C(=O)O)N3C(=O)[C@@H](NC(=O)Cn4cnnn4)[C@H]3SC2)s1` [Cefazolin, reference compound]: the “concentration that inhibited the growth of MRSA BAA-44 on average (antibiotic controls)” value in the data set with MRSA ATCC BAA-44 [1] was 128 µg/mL and 256 µg/mL.

With `CO/N=C(\C(=O)N[C@@H]1C(=O)N2C(C(=O)O)=C(COC(N)=O)CS[C@H]12)c1ccco1` [Cefuroxime, reference compound], the “concentration that inhibited the growth of MRSA BAA-44 on average (antibiotic controls)” value in the data set with MRSA ATCC BAA-44 [1] was 128 µg/mL and 256 µg/mL.

Turning to `Cl.NCC(=O)Nc1cc(Cl)c2nc(N3CCc4c([nH]c5ccc(Cl)cc45)C3)sc2c1` [Compound 4ae, 2-amino-N-(4-chloro-2-(6-chloro-1,3,4,9-tetrahydro-2H-pyrido[3,4-b]indol-2-yl)benzo[d]thiazol-6-yl)acetamide hydrochloride], the “MIC (in words)” value against MRSA ATCC BAA-44 [1] is recorded as “excellent MICs”. In addition, the GI50 with HeLa cells was found to be 14.8 µg/mL.

Consider `C[N+](C)(C)CC1CN(c2nc3ccc(Cl)cc3s2)Cc2[nH]c3ccc(Cl)cc3c21.[I-]` (racemic) [Compound 12d, 1-(6-Chloro-2-(6-chlorobenzo[d]thiazol-2-yl)-2,3,4,9-tetrahydro-1H-pyrido[3,4-b]indol-4-yl)-N,N,N-trimethylmethanaminium iodide], for which, in the data set with MRSA ATCC BAA-44 [1], the minimum inhibitory concentration (MIC) is 8 µg/mL.

As to `FC(F)(F)c1cnc2nc(N3CCc4c([nH]c5ccc(Cl)cc45)C3)sc2c1` [Compound 4e, 6-Chloro-2-[6-(trifluoromethyl)[1,3]thiazolo[4,5-b]pyridin-2-yl]-2,3,4,9-tetrahydro-1H-pyrido[3,4-b]indole], the “RMA activity (in words)” value in the data set on MRSA ATCC BAA-44 [2] was “abolished”.

Consider `Cl.NCCSCC1CN(c2nc3ccc(Cl)cc3s2)Cc2[nH]c3ccc(Cl)cc3c21` (racemic) [Compound 12a, 2-(((6-Chloro-2-(6-chlorobenzo[d]thiazol-2-yl)-2,3,4,9-tetrahydro-1H-pyrido[3,4-b]indol-4-yl)methyl)thio)ethan-1-amine hydrochloride], for which, in the data set with HeLa cells, the GI50 worked out at 3.8 µg/mL.

As to `Clc1ccc2nc(N3CCc4c([nH]c5cccc(Cl)c45)C3)sc2c1` [Compound 4f, 5-Chloro-2-(6-chloro-1,3-benzothiazol-2-yl)-2,3,4,9-tetrahydro-1H-pyrido[3,4-b]indole], the MIC in the data set on MRSA ATCC BAA-44 [1] is above 16 µg/mL.

In the case of `FC(F)(F)c1cccc(NC(=S)N2CCc3c([nH]c4ccc(Cl)cc34)C2)c1` [Compound 5c, 6-Chloro-N-[3-(trifluoromethyl)phenyl]-1,3,4,9-tetrahydro-2H-pyrido[3,4-b]indole-2-carbothioamide], the MIC in the data set with MRSA ATCC BAA-44 [1] came to 2 µg/mL (≈ 4.88 µM).

On to `Clc1ccc2[nH]c3c(c2c1)CCN(c1nc2c(Cl)cc(Br)cc2s1)C3` [Compound 4ac, 2-(6-Bromo-4-chloro-1,3-benzothiazol-2-yl)-6-chloro-2,3,4,9-tetrahydro-1H-pyrido[3,4-b]indole], for which, in the data set with MRSA ATCC BAA-44 [1], the MIC was above 32 µg/mL. The molecule also had a GI50 in the data set with HeLa cells of 22 µg/mL (≈ 48.5 µM).

In the case of `S=C(Nc1ccc(Cl)cc1)N1CCc2c([nH]c3ccc(Cl)cc23)C1` [Compound 5a, 6-Chloro-N-(4-chlorophenyl)-1,3,4,9-tetrahydro-2H-pyrido[3,4-b]indole-2-carbothioamide], the MIC with MRSA ATCC BAA-44 [1] was 4 µg/mL (≈ 10.6 µM).

Turning to `Clc1ccc2nc(N3CCc4c([nH]c5c(Cl)cccc45)C3)sc2c1` [Compound 4h, 8-Chloro-2-(6-chloro-1,3-benzothiazol-2-yl)-2,3,4,9-tetrahydro-1H-pyrido[3,4-b]indole], the MIC in the data set with MRSA ATCC BAA-44 [1] was above 16 µg/mL.

`NCCNCC1CN(c2nc3ccc(Cl)cc3s2)Cc2[nH]c3ccc(Cl)cc3c21` (racemic) [Compound 12e, N1-((6-chloro-2-(6-chlorobenzo[d]thiazol-2-yl)-2,3,4,9-tetrahydro-1H-pyrido[3,4-b]indol-4-yl)methyl)ethane-1,2-diamine] had a GI50 with HeLa cells of 2.4 µg/mL (≈ 5.38 µM).

In the case of `Clc1ccc2nc(N3CCc4c([nH]c5ccc(Br)cc45)C3)sc2c1` [Compound 4j, 6-Bromo-2-(6-chloro-1,3-benzothiazol-2-yl)-2,3,4,9-tetrahydro-1H-pyrido[3,4-b]indole], in the data set on MRSA ATCC BAA-44 [1], the MIC turned out to be 4 µg/mL (≈ 9.55 µM).

Turning to `Clc1cc(Cl)c2nc(N3CCc4c([nH]c5ccc(Cl)cc45)C3)sc2c1` [Compound 4x, 6-Chloro-2-(4,6-dichloro-1,3-benzothiazol-2-yl)-2,3,4,9-tetrahydro-1H-pyrido[3,4-b]indole], in the data set with MRSA ATCC BAA-44 [1], the “MIC (in words)” value is given as “excellent MICs” and the MIC turned out to be 2 µg/mL (≈ 4.89 µM). For the same molecule, the GI50 in the data set on HeLa cells was determined as 16.1 µg/mL (≈ 39.4 µM).

`Oc1cc(Cl)c2nc(N3CCc4c([nH]c5ccc(Cl)cc45)C3)sc2c1` [Compound 4aa, 4-Chloro-2-(6-chloro-1,3,4,9-tetrahydro-2H-pyrido[3,4-b]indol-2-yl)-1,3-benzothiazol-6-ol]: the MIC in the data set with MRSA ATCC BAA-44 [1] was above 32 µg/mL. In addition, the GI50 in the data set on HeLa cells came out at 5.5 µg/mL (≈ 14.1 µM).

For the origin of these results see patent US20220402914A1, “Tryptoline-Based Benzothiazoles and their use as Antibiotics and Antibiotic Resistance-Modifying Agents” (The Regents of the University of Colorado, a body corporate, priority 2019, published 2022).
